Measurements: the supplement of paper PMC13380429

Key:
Conditions in all cases: 72 h
HepG2 [1] = test: relative viability EC50 (midpoint between 100% and the lowest measured viability); higher = less toxic
Calu-3 [2] = test: as above
Vero E6 [3] = test: as above
HepG2 [4] = test: drug sensitivity score (DSS) for viability; higher = more toxic; extreme values may be limits of the assay
Calu-3 [5] = test: as above
Caco-2 [6] = test: as above
U2OS [7] = test: as above
Vero E6 [8] = test: as above
HepG2 [9] = test: cell viability relative to DMSO; higher = less toxic
Calu-3 [10] = test: as above
Caco-2 [11] = test: as above
U2OS [12] = test: as above
Vero E6 [13] = test: as above
Caco-2 [14] = test: relative viability EC50 (midpoint between 100% and the lowest measured viability); higher = less toxic
U2OS [15] = test: as above

| Compound | relative viability EC50 (HepG2 [1]) [µM] | relative viability EC50 (Calu-3 [2]) [µM] | relative viability EC50 (Vero E6 [3]) [µM] | drug sensitivity score (HepG2 [4]) | drug sensitivity score (Calu-3 [5]) | drug sensitivity score (Caco-2 [6]) | drug sensitivity score (U2OS [7]) | drug sensitivity score (Vero E6 [8]) | cell viability (HepG2 [9]; 1 nM) [%] | cell viability (HepG2 [9]; 10 nM) [%] | cell viability (HepG2 [9]; 100 nM) [%] | cell viability (HepG2 [9]; 1000 nM) [%] | cell viability (HepG2 [9]; 10000 nM) [%] | cell viability (Calu-3 [10]; 1 nM) [%] | cell viability (Calu-3 [10]; 10 nM) [%] | cell viability (Calu-3 [10]; 100 nM) [%] | cell viability (Calu-3 [10]; 1000 nM) [%] | cell viability (Calu-3 [10]; 10000 nM) [%] | cell viability (Caco-2 [11]; 1 nM) [%] | cell viability (Caco-2 [11]; 10 nM) [%] | cell viability (Caco-2 [11]; 100 nM) [%] | cell viability (Caco-2 [11]; 1000 nM) [%] | cell viability (Caco-2 [11]; 10000 nM) [%] | cell viability (U2OS [12]; 1 nM) [%] | cell viability (U2OS [12]; 10 nM) [%] | cell viability (U2OS [12]; 100 nM) [%] | cell viability (U2OS [12]; 1000 nM) [%] | cell viability (U2OS [12]; 10000 nM) [%] | cell viability (Vero E6 [13]; 1 nM) [%] | cell viability (Vero E6 [13]; 10 nM) [%] | cell viability (Vero E6 [13]; 100 nM) [%] | cell viability (Vero E6 [13]; 1000 nM) [%] | cell viability (Vero E6 [13]; 10000 nM) [%] | relative viability EC50 (Caco-2 [14]) [µM] | relative viability EC50 (U2OS [15]) [µM] |
| --- | --- | --- | --- | --- | --- | --- | --- | --- | --- | --- | --- | --- | --- | --- | --- | --- | --- | --- | --- | --- | --- | --- | --- | --- | --- | --- | --- | --- | --- | --- | --- | --- | --- | --- | --- |
| Oc1cccc(-c2c3nc(c(-c4cccc(O)c4)c4ccc([nH]4)c(-c4cccc(O)c4)c4nc(c(-c5cccc(O)c5)c5ccc2[nH]5)CC4)C=C3)c1 [temoporfin] | > 10 | > 10 | > 10 | 0.1 | 0 | 2.8 | 1.8 | 1.5 | 104 | 105 | 103 | 106 | 86.4 | 90 | 96.7 | 104 | 102 | 91.6 | 96.2 | 102 | 94.3 | 94.4 | 61.4 | 100 | 104 | 96.6 | 98.9 | 64.7 | 99.3 | 100 | 98.1 | 90.5 | 77.6 | – | – |
| Cc1nn(C)c2nc(NNC(=O)Nc3cc(Cl)nc(Cl)c3)cc(C(C)C)c12 [JTE-013] | – | > 10 | > 10 | 1.7 | 0 | 0.4 | 0 | 0 | 97.8 | 93.1 | 104 | 95.6 | 74.2 | 101 | 101 | 97.5 | 110 | 92 | 96.7 | 100 | 105 | 100 | 82.4 | 107 | 100 | 99.4 | 93.6 | 92.9 | 99.1 | 105 | 95.7 | 100 | 93.9 | > 10 | > 10 |
| CC(C)c1nc(CN(C)C(=O)N[C@H](C(=O)N[C@@H](Cc2ccccc2)C[C@H](O)[C@H](Cc2ccccc2)NC(=O)OCc2cncs2)C(C)C)cs1 [Ritonavir] | > 10 | > 10 | > 10 | 0 | 0.1 | 1.2 | 0 | 0 | 103 | 93.9 | 97.2 | 96.8 | 93.8 | 97.4 | 89.1 | 94.9 | 103 | 86.3 | 99.9 | 90.5 | 94.4 | 96.9 | 77.6 | 93.7 | 97.8 | 100 | 99.2 | 96.4 | – | – | – | – | – | > 10 | > 10 |
| Cc1cccc(C)c1NC(=O)CN1CCN(CCCC(c2ccc(F)cc2)c2ccc(F)cc2)CC1 [lidoflazine] | > 10 | > 10 | > 10 | 1 | 0 | 1.1 | 0 | 0.2 | 99.5 | 109 | 108 | 96.2 | 80.9 | 106 | 113 | 112 | 102 | 88.4 | 83.7 | 99.5 | 84.9 | 105 | 68.2 | 105 | 103 | 101 | 107 | 92.7 | 117 | 106 | 102 | 98.2 | 87.4 | – | > 10 |
| CCOc1ccc(NC(=S)N2CCC(C(O)(c3ccccc3)c3ccccc3)CC2)cc1 [SF-11] | > 10 | > 10 | > 10 | 0 | 0 | – | 0 | 0 | 99.5 | 100 | 103 | 109 | 91.7 | 100 | 107 | 96.7 | 104 | 96.5 | – | – | – | – | – | 101 | 96.6 | 98.4 | 98.2 | 100 | 101 | 99.9 | 98.4 | 99.8 | 102 | – | > 10 |
| C[C@H](CCC(=O)O)[C@H]1CC[C@H]2[C@@H]3CC[C@@H]4C[C@H](O)CC[C@]4(C)[C@H]3CC[C@]12C [lithocholic-acid] | > 10 | > 10 | > 10 | 0 | 0 | 0 | – | 0 | 102 | 96.4 | 108 | 90.2 | 111 | 98.9 | 91.2 | 98.2 | 93.3 | 105 | 106 | 96.9 | 101 | 98 | 99 | – | – | – | – | – | 102 | 101 | 102 | 101 | 98.7 | > 10 | – |
| CC[C@H](C)C(=O)O[C@H]1C[C@@H](C)C=C2C=C[C@H](C)[C@H](CC[C@@H]3C[C@@H](O)CC(=O)O3)[C@H]21 [lovastatin] | > 10 | > 10 | > 10 | 0.1 | 0.2 | 0 | 2.8 | 0 | 91.2 | 109 | 96.4 | 92.3 | 88.7 | 87.8 | 106 | 96.3 | 111 | 81.6 | 92.2 | 85.7 | 84.2 | 106 | 101 | 94.1 | 108 | 96.2 | 96.6 | 55.4 | 100 | 100 | 96.2 | 102 | 88.1 | > 10 | – |
